Patent USRE43712E1, “Methods for assaying for antidepressant therapy markers” (The Board of Trustees of the Uniersity of Illinois, priority 2000, dated 2012)
Marks after values point to notes of the source that are not given here.

Columns and labels:
Type in all cases: cell-based
Gsα [1] = assay: Gsα in Triton-insoluble, caveolin-enriched versus Triton-soluble fraction of C6-2B cells (sucrose density gradient, immunoblot); conditions: chronic treatment, FIG. 3C
Method: (§1) Rat cortex membrane, C6-2B cell membranes, or Triton extracts of each membrane preparation were subjected to SDS-PAGE followed by electrotransfer to polyvinylidene difluoride (PVDF) membrane. The PVDF membrane was incubated with a phosphate-buffered saline/Tween 20 Buffer (140 mM NaCl, […]. 0.1% Tween 20, pH 7.4) and 3% bovine serum albumin. The membrane was then incubated with polyclonal rabbit antisera against the various G protein subunits [RM (Gsα) or 116 (Gi1, Gi2, Gi3α)] at a 1:25,000 (RM) or 1:5,000 (116) dilution (see below for source of antibodies). […] Immunoreactivity was detected with an enhanced chemiluminescence (ECL) western blot detection system (Amersham) in accord with the manufacturer's instructions. The developed autoradiographs were analyzed by densitometry.

Goα = assay: Cellular localization of Goα in C6-2B cells, immunofluorescence confocal microscopy; conditions: 10 μM desipramine 3 days, approximately 500 cells, FIG. 9
Method: C6-2B cells (between passages 30 and 50) were plated onto coverslips and allowed to attach overnight in Dulbecco's modified Eagle's medium. 4.5 g/l glucose, 10% bovine serum, and 100 μg/ml penicillin and streptomycin at 37° C. in a humidified 10% CO2 atmosphere. […] Therefore, the latter treatment paradigm was used in these experiments because it was easier to maintain the cell cultures for 3 days. […] The culture media and drug were changed daily. […] After the treatment duration, the cells were incubated in drug-free media for 45 to 60 minutes before fixation.
After treatment, cells were washed once with phosphate-buffered saline (PBS, […] NaCl, 2.6 mM KCl, 5.4 mM NaαPO4 7H2O, pH 7.4) and fixed with ice-cold methanol for 10 minutes. Cells were then washed three times with PBS followed by 2 h of blocking in 5% normal goat serum/0.2% fish skin gelatin in PBS. Primary antibody was added for 1.5 h, Gsα/RM1 (PerkinElmer Life Sciences, Boston, Mass.) 1:50 and Goα (Santa Cruz Biotechnology, Santa Cruz, Calif.) 2 μg/ml, followed by three washes with PBS. Oregon Green-labeled secondary antibody (Molecular Probes, Eugene, Oreg.) was added at a concentration of 8 μg/ml for 1 h followed by three PBS washes. […] Approximately 2100 cells from control and desipramine-treated coverslips were counted by two investigators blind to the experimental conditions over the course of the five experiments. […]

Gsα [2] = assay: Content of G protein (Gsα) in C6-2B glioma membranes after antidepressant treatment, quantitative immunoblot
Method: (§2) C6-2B cells (between passages 20 and 40) were grown in 175-cm^2 flasks in Dulbecco's modified Eagle medium, 4.5 g of glucose/L, 10% bovine serum, in a 10% CO2 atmosphere, at 37° C. for 3 days after splitting. […] Male Sprague-Dawley rats weighing 150-200 g were fed ad libitum and maintained in a 12-h light/dark cycle. […] 36:803-838, 1989]. […] Rat cerebral cortex membranes were prepared according to the method of Rasenick et al. [Nature, 294:560-562; 1981].
as §1
Purified recombinant GsαL (long form of Gsα; 1-10 ng/lane) was subjected to SDS-PAGE and transferred to PVDF membranes. The blots were incubated with antibody against Gsα (RM) and processed by ECL. Films were analyzed on a Molecular Dynamics densitometer, and the volume of each band was quantified and used to make a standard curve.
Experiments were conducted to determine whether Gsα is quantitatively altered by antidepressant therapy. For quantification of Gsα in C6-2B membrane, a standard curve was created using purified recombinant […]. Pure Gsα (1-20 ng/well) was subjected to SDS-PAGE and transferred to a PVDF membrane, Gsα was immunodetected by antisera against the as subunit of G protein.
To estimate the effect of antidepressant treatment on the amount of Gsα in C6-2B membranes, equal amounts (10 μg) of C6-2B glioma membrane proteins in control and chronically (3 days) antidepressant-treated groups were subjected to SDS-PAGE. Gsα was immunodetected by antisera against the αs subunit of G protein.

Gsα [3] = assay: Sequential detergent extraction (Triton X-100 / Triton X-114) of Gsα from C6-2B glioma membranes; conditions: C6-2B cells, 10 μM, 3 days; mean ± SEM of 4-5 experiments
Method: as §2
Membrane proteins were extracted sequentially from C6-2B or rat synaptic membranes as described [Yan et al., J. Neurochem., 66:1489-1495; 1996]. These membranes were stirred on ice in HEPES (15 mM, pH 7.4) containing 1% Triton X-100 for 60 min followed by centrifugation at 100,000 g for 60 min at 4° C. The supernatant was reserved (Triton X-100 extract), and the resulting pellet was resuspended in Tris (15 mM, pH 7.4) containing 1.4% Triton X-114 and 150 mM NaCl. The solution was stirred for 60 min at 4° C. and centrifuged for 30 min at 100,000 g in the cold. The supernatant was saved (Triton X-114 extract). These supernatants and remaining pellet (remainder) were subjected to sodium dodecyl sulfate (SDS)-polyacrylamide gel electophoresis (PAGE) using 10% gels. All of the extraction buffers contained 1 mM PMSF and 1 mM EGTA.
as §1
A membrane-enriched fraction was prepared (see Example 1), and membrane proteins were extracted sequentially with Triton X-100 (Tx 100) and Triton X-114 (Tx 114). Equal amounts of these extracts were subjected to SDS-PAGE and transferred to PVDF membrane. The long and short forms of Gsα (GsαL and GsαS) from different fractions were identified by immunodetection.
Experiments were conducted according to the method set forth in Example 1 to assess the effects of different antidepressants on the detergent extraction of Gsα from C6-2B glioma cells.
The ratios of the percentage of Gsα extracted by the two detergents in the treatment versus control groups were compared and are set forth in Table 2 as percentage of control (i.e., each Triton X-100 extract was compared with the untreated Triton X-100 extract; the same was done for Triton X-114 extracts as well as the remainder).

[4] = C6-2B membranes, 10 μM drug for 3 days, mean ± SEM of 4-5 experiments

Compound | Decrease of the amount of Gsα in the caveolin-enriched Triton-insoluble fraction, normalized to equal caveolin (Gsα [1]) [%] | Change in the distribution of Goα (Goα) | Quantity of G proteins in membrane, treated versus control (Gsα [2]; C6-2B cells, 10 μM, 3 days, p>0.05) | G protein amount, Total (Gsα [2]; [4]) | G protein amount, αsL (Gsα [2]; [4]) | G protein amount, αsS (Gsα [2]; [4]) | GsαL in Triton X-114 extract, % of corresponding value in control group (Gsα [3]) | GsαS in Remainder, % of corresponding value in control group (Gsα [3]) [%] | GsαS in Triton X-100 extract, % of corresponding value in control group (Gsα [3]) | GsαS in Triton X-114 extract, % of corresponding value in control group (Gsα [3])
CNCCCN1c2ccccc2CCc2ccccc21 [Desipramine, desipramine] | ~50 | little if any change | – | – | – | – | – | – | – | –
CNCCC(Oc1ccc(C(F)(F)F)cc1)c1ccccc1 (stereo not shown) [Fluoxetine, fluoxetine] | – | – | no significant differences | 12.49 ± 0.67 ng/10 ug of membrane protein | 7.23 ± 0.56 ng/10 ug of membrane protein | 5.65 ± 0.74 ng/10 ug of membrane protein | 84.4 ± 2.9^b % | 99.7 ± 3.1 | 215.9 ± 30.9^a % | 92.2 ± 1.3^b %
